Experimental data: PMC3765824, “Trough colistin plasma level is an independent risk factor for nephrotoxicity: a prospective observational cohort study” (BMC Infectious Diseases, 2013)
Where two headings read alike, the source gives them in different places. Bridge positions count the residues as written; N and C are the ends. Square brackets hold non-standard residues; d marks the D form. Peptide text beside a SMILES is read from it. * marks the point of attachment. X1 = CC[C@H](C)CCCCC(=O)*; Dab = NCC[C@H](N)C(=O)O

Legend:
[1] = Colistin plasma concentrations at steady state (HPLC); format: in vivo, patients; details: human; for Cmax: intravenous; for level at 72 h: iv
Experimental: Evaluation of the colistin concentration in plasma was performed after 3 days of treatment, when the colistin concentrations had reached steady state. The samples were immediately centrifuged (3000 g for 10 minutes) and the plasma was stored at −80°C until analysis. Colistin plasma trough concentrations (Cmin) were measured just before the next dose. Maximum plasma concentrations (Cmax) were taken 30 minutes after the end of the CMS infusion (1 h after the start of infusion).
Colistin concentrations in plasma were determined using a validated high-performance liquid chromatography (HPLC) method as described by Li et al., with minor modifications. After protein precipitation, the samples were centrifuged (14000 g, 5 min) and the supernatant transferred to solid phase extraction (SPE) C18 cartridges (Sep-Pak, Waters, Milford, MA, USA), in which derivation with 9-fluorenylmethyl chloroformate (FMOC-Cl) was performed. Elution of the fluorescence derivatives was performed with acetone mixed with acetonitrile and boric acid. Finally, 20 μl of the mixture was injected into the HPLC. The HPLC system was made up of Waters equipment that included a Waters 2475 multi-λ Fluorescence Detector, a Waters 1525 binary pump with column heater, a Waters degasser, and a Waters 717 autoinjector sampler. The stationary phase was a Waters SunFire column C18, 4.6 × […], 5 μm. The mobile phase was a mixture of acetonitrile, tetrahydrofuran and water delivered at an isocratic flux of 1 mL/min. The chromatogram run time was 20 minutes and the detector setting was excitation wavelength 260 nm and emission wavelength 315 nm. The concentrations of colistin were calculated by multiplying the obtained colistin sulfate plasma concentrations by 1163/1403 (1163 being the average molecular weight of colistin A and B, which are the greater part of the products, and 1403 the average molecular weight of colistin sulfate). The colistin plasma concentration in each patient was calculated as the sum of colistin A and B, the two main components. Calibration curves were linear in the range 0.1-8 mcg/ml and the accuracy quality control samples varied from 90–110 % of the nominal concentration for intraday and interday analysis, with a precision (CV%) of 10% or less. The limit of quantification was 0.1 mcg/ml and the limit of detection was 0.05 mcg/mL.

[2] = test system: infections caused by MDR-GNB; experiment: Clinical response to CMS treatment; format: in vivo, patients
Experimental: (§1) This prospective observational study was performed at a 400-bed acute-care university hospital in Barcelona, Spain. A pharmacy-generated alarm system was used to identify patients on CMS treatment for therapy of infections caused by MDR-GNB. From January 2010 to June 2011, patients (>18 years) were included if they had received colistin methanesulfonate sodium (CMS) for at least 4 days. Patients were excluded if they were receiving renal replacement therapy prior to the initiation of CMS.
Data on demographic characteristics including age, gender, body weight, size, and body mass index were collected. Data on the indication for CMS, the administration schedule, the daily CMS dose recorded as millions of IU, the total cumulative CMS dose (millions of IU), and the duration of treatment were collected. Other data recorded included the presence of CKD at baseline, the Charlson score, the severity of disease at the time of the first CMS dose stratified according to the Acute Physiology and the Chronic Health Evaluation (APACHE) II [16]. The concomitant use of aminoglycosides, vancomycin, angiotensin II receptor blockers, angiotensin-converting enzyme inhibitors, loop diuretics, intravenous dye, amphotericin B, non-steroidal anti-inflammatory drugs (NSAIDs), the need for vasopressor drugs, and discontinuation of CMS treatment because of AKI were also recorded. The patient’s clinical status at the beginning of CMS treatment was defined as infection, severe sepsis and shock, according to the standard definition. Clinical response was defined as the resolution of signs, symptoms, and laboratory parameters that defined infection for each patient. The 30-day all-cause mortality was also recorded.

[3] = test system: patients receiving intravenous colistin methanesulfonate sodium (CMS); experiment: 30-day all-cause mortality; format: in vivo; details: 102 patients on iv CMS
Text: Data on demographic characteristics including age, gender, body weight, size, and body mass index were collected. Data on the indication for CMS, the administration schedule, the daily CMS dose recorded as millions of IU, the total cumulative CMS dose (millions of IU), and the duration of treatment were collected. Other data recorded included the presence of CKD at baseline, the Charlson score, the severity of disease at the time of the first CMS dose stratified according to the Acute Physiology and the Chronic Health Evaluation (APACHE) II [16]. The concomitant use of aminoglycosides, vancomycin, angiotensin II receptor blockers, angiotensin-converting enzyme inhibitors, loop diuretics, intravenous dye, amphotericin B, non-steroidal anti-inflammatory drugs (NSAIDs), the need for vasopressor drugs, and discontinuation of CMS treatment because of AKI were also recorded. The patient’s clinical status at the beginning of CMS treatment was defined as infection, severe sepsis and shock, according to the standard definition. Clinical response was defined as the resolution of signs, symptoms, and laboratory parameters that defined infection for each patient. The 30-day all-cause mortality was also recorded. […]

[4] = test system: patients receiving intravenous colistin methanesulfonate sodium (CMS); experiment: Colistin-associated nephrotoxicity: AKI by RIFLE criteria during CMS treatment; format: in vivo; details: for N° (%) of patients fulfilling criterion: ESKD (E) / N° (%) of patients fulfilling criterion: Failure (F) / N° (%) of patients fulfilling criterion: Injury (I) / N° (%) of patients fulfilling criterion: Loss (L) / N° (%) of patients fulfilling criterion: No injury / N° (%) of patients fulfilling criterion: Risk (R): RIFLE
Experimental: as §1
CMS for injection was used and dosed in millions of international units (IU) throughout the study. The drug was administered intravenously in 100 mL normal saline over 30 minutes in the commercially available colistimethate formulation for injection (GES Genéricos Españoles ®), with each vial containing 80 mg CMS (equivalent to 1 million international units of CMS). Dose selection was based on the individual criteria of the responsible clinicians, who were not aware that this study was being performed. Although there were some dose adjustments based on baseline renal function, common colistin doses ranged from 1 to 3 million international units (IU) every 8 hours (3–9 million IU daily). Dose adjustments were made according to the package insert’s recommended dosing as follows: GFR ≥ 76 mL/min/1.73 m^2, 4–6 million IU daily in three doses; GFR 40 to 75 mL/min/1.73 m^2, 2–3 million IU daily in 2 doses; GFR 25 to 40 mL/min/1.73 m^2, 1.5-2 million IU daily divided in 1 or 2 doses and; GFR < 25 mL/min/1.73 m^2 , 0.6-1 million of IU daily every 36 hours.
Serum creatinine level and estimated glomerular filtration rate (GFR) were recorded at baseline, on day 7 and at the end of treatment (EOT). We chose these set points because blood tests are done routinely for all inpatients at least once a week and at the end of treatment. The abbreviated Modification of Diet in the Renal Disease Equation (MDRD-4) was used to calculate GFR. Chronic kidney disease (CKD) at baseline was considered if GFR was < 60 mL/min/1.73 m^2 for ≥ 3 months. Patients with increased creatinine (> 1.4 mg/dL) or GFR < 90 mL/min/1.73 m^2 at admission and no prior data regarding chronicity were considered as having acute renal failure due to any cause. The RIFLE criteria (risk, injury, failure, loss, and end-stage kidney disease), estimated with exclusion of the urinary output criterion, were used for detection and stratification of AKI [14] (Table 1). AKI during CMS treatment was defined as a 1.5-fold or more increase in serum creatinine and/or a decrease in the GFR of 25% or more. These criteria needed to be fulfilled for at least 2 consecutive determinations 24 hours apart, after ≥ 4 days of CMS therapy. Patients who developed AKI were followed up for a period of 30 days after the end of CMS treatment to evaluate the reversibility of this toxicity. Patients who died or had no data during this period were excluded from this analysis.
Multivariate analysis of risk factors for colistin nephrotoxicity was constructed by using logistic regression. Univariate analyses were performed separately for each of the risk factor variables to ascertain the odds ratio and 95% confidence interval (CI). All clinically important covariates and those with a P value < 0.2 in the univariate analyses were included in the multivariate analysis. Since Cmax and Cmin values were almost equal, only one of these variables was included in the model.
The ROC curve was used to identify a categorical breakpoint for Cmin that would better identify patients who develop acute kidney injury (AKI) on day 7 and at the end of treatment. For all analyses, a two-sided P value < 0.05 was considered to be statistically significant. The Statistical Package for the Social Sciences (SPSS, version 15.0) was used for statistical analysis.

[5] = % of the 26 patients with nephrotoxicity at day 7
[6] = End of treatment, multivariate logistic regression

CC[C@H](C)CCCCC(=O)N[C@@H](CCN)C(=O)N[C@H](C(=O)N[C@@H](CCN)C(=O)N[C@H]1CCNC(=O)[C@H]([C@@H](C)O)NC(=O)[C@H](CCN)NC(=O)[C@H](CCN)NC(=O)[C@H](CC(C)C)NC(=O)[C@@H](CC(C)C)NC(=O)[C@H](CCN)NC1=O)[C@@H](C)O [colistin] (X1-[Dab]T[Dab][Dab][Dab][dL]L[Dab][Dab]T; lactam 4-C)
Cmax ([1]; 1 million IU/8 h, CMS 1 million IU/8 h (n = 28), steady state, 30 min after infusion, median (interquartile range), read-out: Cmax): 650 ng/mL | Cmax ([1]; 2 million IU/8 h, CMS 2 million IU/8 h (n = 42), steady state, 30 min after infusion, median (interquartile range), read-out: Cmax): 1130 ng/mL | Cmax ([1]; 3 million IU/8 h, CMS 3 million IU/8 h (n = 16), steady state, 30 min after infusion, median (interquartile range), read-out: Cmax): 1840 ng/mL | Cmax ([1]; CMS other doses (n = 16), steady state, 30 min after infusion, median (interquartile range), read-out: Cmax): 1500 ng/mL | Cmax ([1]; first value of pair, taken as patients without acute renal failure at baseline, read-out: Peak colistin plasma level): 1000 ng/mL | Cmax ([1]; second value of pair, taken as patients with acute renal failure at baseline, read-out: Peak colistin plasma level): 1820 ng/mL | level at 72 h ([1]; 1 million IU/8 h, CMS 1 million IU/8 h (n = 28), steady state trough, median (interquartile range), read-out: Cmin): 710 ng/mL | level at 72 h ([1]; 2 million IU/8 h, CMS 2 million IU/8 h (n = 42), steady state trough, median (interquartile range), read-out: Cmin): 1140 ng/mL | level at 72 h ([1]; 3 million IU/8 h, CMS 3 million IU/8 h (n = 16), steady state trough, median (interquartile range), read-out: Cmin): 1840 ng/mL | level at 72 h ([1]; CMS other doses (n = 16), steady state trough, median (interquartile range), read-out: Cmin): 1500 ng/mL | level at 72 h ([1]; first value of pair, taken as patients without acute renal failure at baseline, read-out: Trough colistin plasma level): 860 ng/mL | level at 72 h ([1]; second value of pair, taken as patients with acute renal failure at baseline, read-out: Trough colistin plasma level): 1790 ng/mL

colistin methanesulfonate sodium [CMS]
Clinical response ([2]; CMS 1 million IU/8 h (n = 28)): 25 (89.3) n (%) | Clinical response ([2]; CMS 2 million IU/8 h (n = 42)): 32 (76.2) n (%) | Clinical response ([2]; CMS 3 million IU/8 h (n = 16)): 11 (68.8) n (%) | Clinical response ([2]; CMS other doses (n = 16)): 11 (68.8) n (%) | Clinical response ([2]; all included patients n=102): 79 (77.5) n (%) | 30-day all-cause mortality rate [3]: 32.4% | Patients who developed AKI needing renal replacement therapy ([4]; 53 patients with AKI): None | Nephrotoxicity at day 7: F (Failure) [4, 5]: 2 (7.6) n (%) | Nephrotoxicity at day 7: I (Injury) [4, 5]: 8 (30.7) n (%) | Nephrotoxicity at day 7: R (Risk) [4, 5]: 16 (61.5) n (%) | Nephrotoxicity at the end of treatment: I (Injury) ([4]; % of the 50 patients with nephrotoxicity at EOT): 23(46) n (%) | AKI at EOT ([4]; CMS 1 million IU/8 h (n = 28)): 14 (50) n (%) | AKI at day 7 ([4]; CMS 1 million IU/8 h (n = 28)): 5 (17.9) n (%) | AKI at EOT ([4]; CMS 2 million IU/8 h (n = 42)): 21 (50) n (%) | AKI at day 7 ([4]; CMS 2 million IU/8 h (n = 42)): 11 (26.2) n (%) | AKI at EOT ([4]; CMS 3 million IU/8 h (n = 16)): 9 (56.3) n (%) | AKI at day 7 ([4]; CMS 3 million IU/8 h (n = 16)): 7 (43.8) n (%) | AKI at EOT ([4]; CMS other doses (n = 16)): 6 (37.5) n (%) | AKI at day 7 ([4]; CMS other doses (n = 16)): 3 (18.8) n (%) | N° (%) of patients fulfilling criterion: ESKD (E) ([4]; Day 7 (n = 102)): 0 (0) N° (%) | N° (%) of patients fulfilling criterion: Failure (F) ([4]; Day 7 (n = 102)): 2 (2) N° (%) | N° (%) of patients fulfilling criterion: Injury (I) ([4]; Day 7 (n = 102)): 8 (7.8) N° (%) | N° (%) of patients fulfilling criterion: Loss (L) ([4]; Day 7 (n = 102)): 0 (0) N° (%) | N° (%) of patients fulfilling criterion: No injury ([4]; Day 7 (n = 102)): 76 (74.5) N° (%) | N° (%) of patients fulfilling criterion: Risk (R) ([4]; Day 7 (n = 102)): 16 (15.7) N° (%) | Odds ratio (95% CI) of CMS cumulative dose at day 7 for nephrotoxicity ([4]; Day 7, multivariate logistic regression): 0.99 (0.94-1.04) | N° (%) of patients fulfilling criterion: ESKD (E) ([4]; EOT (n = 102)): 0 (0) N° (%) | N° (%) of patients fulfilling criterion: Failure (F) ([4]; EOT (n = 102)): 13 (12.7) N° (%) | N° (%) of patients fulfilling criterion: Injury (I) ([4]; EOT (n = 102)): 23 (22.5) N° (%) | N° (%) of patients fulfilling criterion: Loss (L) ([4]; EOT (n = 102)): 0 (0) N° (%) | N° (%) of patients fulfilling criterion: No injury ([4]; EOT (n = 102)): 52 (51) N° (%) | N° (%) of patients fulfilling criterion: Risk (R) ([4]; EOT (n = 102)): 14 (13.7) N° (%) | Odds ratio (95% CI) of CMS cumulative dose for nephrotoxicity [4, 6]: 0.99 (0.98-1) | Odds ratio (95% CI) of CMS duration treatment for nephrotoxicity [4, 6]: 1.03 (0.98-1.08) | Patients with nephrotoxicity at day 7 ([4]; n=102, RIFLE criteria): 26 (25.5) n (%) | Patients with nephrotoxicity at the end of treatment ([4]; n=102, RIFLE criteria): 50 (49) n (%)
